The values that follow come from patent US20250059171A1 (Hoffmann-La Roche Inc., priority 2021, published 2025).

One experiment deals with SARS-CoV 3CLpro (Severe acute respiratory syndrome coronavirus, UniProt P0C6X7). As to the kind of experiment: biochemical.
The next experiment concerns the target MERS-CoV 3CLpro (Middle East respiratory syndrome-related coronavirus, UniProt K9N7C7). As to the kind of experiment: biochemical.
The target of another experiment is HCoV-229E 3CLpro (Human coronavirus 229E, UniProt P0C6X1). As to the kind of experiment: HCoV-229E 3CLpro inhibition assay (FRET). Format: biochemical.
Sequence of HCoV-229E 3CLpro (P0C6X1 2966-3267): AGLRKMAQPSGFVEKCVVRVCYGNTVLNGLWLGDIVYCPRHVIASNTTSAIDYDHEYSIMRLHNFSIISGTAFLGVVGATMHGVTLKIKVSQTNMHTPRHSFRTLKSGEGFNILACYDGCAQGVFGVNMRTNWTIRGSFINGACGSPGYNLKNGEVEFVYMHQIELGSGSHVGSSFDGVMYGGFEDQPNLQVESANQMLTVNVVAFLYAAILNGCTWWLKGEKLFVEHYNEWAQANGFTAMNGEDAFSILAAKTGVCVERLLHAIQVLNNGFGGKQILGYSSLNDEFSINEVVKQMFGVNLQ
A further experiment has as its target SARS-CoV-2 3CLpro (Severe acute respiratory syndrome coronavirus 2, UniProt P0DTD1). The experiment can be described thus: biochemical.

pIC50: −log10 of the molar value.

Sequence of MERS-CoV 3CLpro (K9N7C7 3248-3553): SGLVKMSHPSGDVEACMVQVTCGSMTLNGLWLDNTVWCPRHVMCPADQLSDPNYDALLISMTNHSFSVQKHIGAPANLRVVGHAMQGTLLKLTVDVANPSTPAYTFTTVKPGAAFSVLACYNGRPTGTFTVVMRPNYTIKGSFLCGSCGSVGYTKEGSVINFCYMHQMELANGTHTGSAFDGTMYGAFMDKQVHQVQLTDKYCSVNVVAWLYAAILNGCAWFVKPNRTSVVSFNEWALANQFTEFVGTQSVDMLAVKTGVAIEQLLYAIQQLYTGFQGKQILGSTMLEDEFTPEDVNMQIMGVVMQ

One may read the pIC50 as the IC50 on a negative log10 scale, so that one unit is a factor of ten. Low values mean a high IC50, high ones a low IC50. `CC[C@H](C)[C@H](NC(=O)C(F)F)C(=O)N1C[C@H]2[C@@H]([C@H]1C(=O)NN(C[C@@H]1CCNC1=O)C(=O)[C@@H](F)Cl)C2(C)C` [Example 109, N-[(1S,2S)-1-[(1R,2S,5S)-2-[[[(2S)-2-chloro-2-fluoro-acetyl]-[[(3S)-2-oxopyrrolidin-3-yl]methyl]amino]carbamoyl]-6,6-dimethyl-3-azabicyclo[3.1.0]hexane-3-carbonyl]-2-methyl-butyl]-2,2-difluoro-acetamide]: the pIC50 was 7.70 on SARS-CoV 3CLpro, 7.07 against MERS-CoV 3CLpro, 7.54 against HCoV-229E 3CLpro and 7.85 on SARS-CoV-2 3CLpro.

`CC(C)(C)[C@H](NC(=O)[C@@H]1CC1(F)F)C(=O)N1C[C@@H]2CCC[C@@H]2[C@H]1C(=O)NN(C[C@@H]1CCCNC1=O)C(=O)[C@H](F)Cl` [Example 196, (1S)—N-[(1S)-1-[(3S,3aS,6aR)-3-[[[(2R)-2-chloro-2-fluoro-acetyl]-[[(3S)-2-oxo-3-piperidyl]methyl]amino]carbamoyl]-3,3a,4,5,6,6a-hexahydro-1H-cyclopenta[c]pyrrole-2-carbonyl]-2,2-dimethyl-propyl]-2,2-difluoro-cyclopropanecarboxamide]: the pIC50 is 7.85 against SARS-CoV 3CLpro, 7.05 against MERS-CoV 3CLpro, 7.42 on HCoV-229E 3CLpro and 7.96 against SARS-CoV-2 3CLpro.

For `CC[C@H](C)[C@H](NC(=O)C(C)F)C(=O)N1C[C@@H]2CCC[C@@H]2[C@H]1C(=O)NN(C[C@@H]1CCNC1=O)C(=O)[C@H](F)Cl` (mixture of isomers) [Example 43, Rac-2-fluoro-N-[(1S,2S)-2-methyl-1-[(3S,3aS,6aR)-3-[[[(2R)-2-chloro-2-fluoro-acetyl]-[[(3S)-2-oxopyrrolidin-3-yl]methyl]amino]carbamoyl]-3,3a,4,5,6,6a-hexahydro-1H-cyclopenta[c]pyrrole-2-carbonyl]butyl]propanamide], the negative-log IC50 (pIC50) at SARS-CoV 3CLpro is 7.96; on MERS-CoV 3CLpro, 7.24; on HCoV-229E 3CLpro it was 7.66; against SARS-CoV-2 3CLpro it was 8.10.

As to `CCC(=O)N[C@H](C(=O)N1C[C@@H]2CCC[C@@H]2[C@H]1C(=O)NN(C[C@@H]1CCNC1=O)C(=O)[C@H](F)Cl)[C@@H](C)CC` [Example 38, N-[(1S,2S)-1-[(3S,3aS,6aR)-3-[[[(2R)-2-chloro-2-fluoro-acetyl]-[[(3S)-2-oxopyrrolidin-3-yl]methyl]amino]carbamoyl]-3,3a,4,5,6,6a-hexahydro-1H-cyclopenta[c]pyrrole-2-carbonyl]-2-methyl-butyl]propanamide], the pIC50 against SARS-CoV 3CLpro was 8.00; at MERS-CoV 3CLpro, 7.14; on HCoV-229E 3CLpro it was 7.54; against SARS-CoV-2 3CLpro it was 8.10.

As for `CC1(C)[C@@H]2[C@@H](C(=O)NN(C[C@@H]3CCNC3=O)C(=O)[C@H](F)Cl)N(C(=O)[C@@H](NC(=O)C3(F)CC3)C3CCC3)C[C@@H]21` [Example 156, N-[(1S)-2-[(1R,2S,5S)-2-[[[(2R)-2-chloro-2-fluoro-acetyl]-[[(3S)-2-oxopyrrolidin-3-yl]methyl]amino]carbamoyl]-6,6-dimethyl-3-azabicyclo[3.1.0]hexan-3-yl]-1-cyclobutyl-2-oxo-ethyl]-1-fluoro-cyclopropanecarboxamide], the pIC50 was 7.55 against SARS-CoV 3CLpro, 6.97 at MERS-CoV 3CLpro, 7.49 against HCoV-229E 3CLpro and 7.85 against SARS-CoV-2 3CLpro.

Turning to `CC[C@H](C)[C@H](NC(=O)C(F)(F)F)C(=O)N1C[C@H]2[C@@H]([C@H]1C(=O)NN(C[C@H]1CCCNC1=O)C(=O)[C@H](F)Cl)C2(C)C` (single isomer, unassigned) [Example 165b], the negative-log IC50 (pIC50) against SARS-CoV 3CLpro is 7.44; on MERS-CoV 3CLpro, 6.54; at HCoV-229E 3CLpro, 7.24; at SARS-CoV-2 3CLpro, 7.70.

Turning to `CC[C@H](C)[C@H](NC(=O)C(C)(F)F)C(=O)N1C[C@H]2[C@@H]([C@H]1C(=O)NN(C[C@@H]1CCNC1=O)C(=O)[C@H](F)Cl)C2(C)C` [Example 55, N-[(1S,2S)-1-[(1R,2S,5S)-2-[[[(2R)-2-chloro-2-fluoro-acetyl]-[[(3S)-2-oxopyrrolidin-3-yl]methyl]amino]carbamoyl]-6,6-dimethyl-3-azabicyclo[3.1.0]hexane-3-carbonyl]-2-methyl-butyl]-2,2-difluoro-propanamide], the negative logarithm of the IC50 (pIC50) was 7.85 at SARS-CoV 3CLpro, 7.25 against MERS-CoV 3CLpro, 7.68 at HCoV-229E 3CLpro and 8.10 on SARS-CoV-2 3CLpro.

Take `CC[C@H](C)[C@H](NC(=O)[C@H](F)Cl)C(=O)N1C[C@H]2[C@@H]([C@H]1C(=O)NN(C[C@@H]1CCCNC1=O)C(=O)[C@H](F)Cl)C2(C)C` [Example 188, (2R)-2-chloro-N-[(1S,2S)-1-[(1R,2S,5S)-2-[[[(2R)-2-chloro-2-fluoro-acetyl]-[[(3S)-2-oxo-3-piperidyl]methyl]amino]carbamoyl]-6,6-dimethyl-3-azabicyclo[3.1.0]hexane-3-carbonyl]-2-methyl-butyl]-2-fluoro-acetamide]: the negative logarithm of the IC50 (pIC50) at SARS-CoV 3CLpro is 7.92; against MERS-CoV 3CLpro, 7.17; against HCoV-229E 3CLpro, 7.59; against SARS-CoV-2 3CLpro, 8.10.

Turning to `CC(C)(C)C[C@H](NC(=O)C(F)(F)F)C(=O)N1C[C@H]2[C@@H]([C@H]1C(=O)NN(C[C@@H]1CCNC1=O)C(=O)[C@H](F)Cl)C2(C)C` [Example 66, N-[(1S)-1-[(1R,2S,5S)-2-[[[(2R)-2-chloro-2-fluoro-acetyl]-[[(3S)-2-oxopyrrolidin-3-yl]methyl]amino]carbamoyl]-6,6-dimethyl-3-azabicyclo[3.1.0]hexane-3-carbonyl]-3,3-dimethyl-butyl]-2,2,2-trifluoro-acetamide], the pIC50 was 7.66 on SARS-CoV 3CLpro, 6.85 at MERS-CoV 3CLpro, 7.46 against HCoV-229E 3CLpro and 8.00 on SARS-CoV-2 3CLpro.

As for `CCC(CC)[C@H](NC(=O)C1CC1)C(=O)N1C[C@@H]2CCC[C@@H]2[C@H]1C(=O)NN(C[C@@H]1CCCNC1=O)C(=O)[C@H](F)Cl` [Example 171a, N-[(1S)-1-[(3S,3aS,6aR)-3-[[[(2R)-2-chloro-2-fluoro-acetyl]-[[(3S)-2-oxo-3-piperidyl]methyl]amino]carbamoyl]-3,3a,4,5,6,6a-hexahydro-1H-cyclopenta[c]pyrrole-2-carbonyl]-2-ethyl-butyl]cyclopropanecarboxamide], the negative-log IC50 (pIC50) against SARS-CoV 3CLpro was 7.77; against MERS-CoV 3CLpro, 6.89; against HCoV-229E 3CLpro, 7.03; on SARS-CoV-2 3CLpro, 8.10.

In the case of `O=C1NCC[C@H]1CN(NC(=O)[C@@H]1[C@H]2CCC[C@H]2CN1C(=O)[C@@H](NC(=O)C(F)(F)F)C1CCC1)C(=O)[C@H](F)Cl` [Example 74, N-[(1S)-2-[(3S,3aS,6aR)-3-[[[(2R)-2-chloro-2-fluoro-acetyl]-[[(3S)-2-oxopyrrolidin-3-yl]methyl]amino]carbamoyl]-3,3a,4,5,6,6a-hexahydro-1H-cyclopenta[c]pyrrol-2-yl]-1-cyclobutyl-2-oxo-ethyl]-2,2,2-trifluoro-acetamide], the pIC50 is 7.35 at SARS-CoV 3CLpro, 6.45 against MERS-CoV 3CLpro, 6.93 against HCoV-229E 3CLpro and 8.15 on SARS-CoV-2 3CLpro.

For the compound `CC[C@H](C)[C@H](NC(=O)C(F)(F)F)C(=O)N1C[C@H]2[C@@H]([C@H]1C(=O)NN(C[C@@H]1CCNC1=O)C(=O)[C@@H](F)Cl)C2(C)C` [Example 107, N-[(1S,2S)-1-[(1R,2S,5S)-2-[[[(2S)-2-chloro-2-fluoro-acetyl]-[[(3S)-2-oxopyrrolidin-3-yl]methyl]amino]carbamoyl]-6,6-dimethyl-3-azabicyclo[3.1.0]hexane-3-carbonyl]-2-methyl-butyl]-2,2,2-trifluoro-acetamide], the pIC50 against SARS-CoV 3CLpro is 7.60; on MERS-CoV 3CLpro it was 6.95; at HCoV-229E 3CLpro, 7.40; on SARS-CoV-2 3CLpro, 7.74.

Take `CC[C@@H](C)[C@H](NC(=O)C1CC(F)(F)C1)C(=O)N1C[C@H]2[C@@H]([C@H]1C(=O)NN(C[C@@H]1CCNC1=O)C(=O)[C@H](F)Cl)C2(C)C` [Example 114, N-[(1S,2R)-1-[(1R,2S,5S)-2-[[[(2R)-2-chloro-2-fluoro-acetyl]-[[(3S)-2-oxopyrrolidin-3-yl]methyl]amino]carbamoyl]-6,6-dimethyl-3-azabicyclo[3.1.0]hexane-3-carbonyl]-2-methyl-butyl]-3,3-difluoro-cyclobutanecarboxamide]: the pIC50 is 7.60 against SARS-CoV 3CLpro, 6.95 at MERS-CoV 3CLpro, 7.54 on HCoV-229E 3CLpro and 7.77 at SARS-CoV-2 3CLpro.

Regarding `CC[C@H](C)[C@H](NC(=O)C(F)F)C(=O)N1C[C@@H]2CCC[C@@H]2[C@H]1C(=O)NN(C[C@@H]1CCNC1=O)C(=O)[C@@H](F)Cl` [Example 127, N-[(1S,2S)-1-[(3S,3aS,6aR)-3-[[[(2S)-2-chloro-2-fluoro-acetyl]-[[(3S)-2-oxopyrrolidin-3-yl]methyl]amino]carbamoyl]-3,3a,4,5,6,6a-hexahydro-1H-cyclopenta[c]pyrrole-2-carbonyl]-2-methyl-butyl]-2,2-difluoro-acetamide], the pIC50 on SARS-CoV 3CLpro is 7.92; against MERS-CoV 3CLpro, 7.17; at HCoV-229E 3CLpro, 7.46; against SARS-CoV-2 3CLpro, 8.00.

With `CC(C)(C)[C@H](NC(=O)C(F)F)C(=O)N1C[C@H]2[C@@H]([C@H]1C(=O)NN(C[C@@H]1CCNC1=O)C(=O)[C@H](F)Cl)C2(C)C` [Example 14, N-[(1S)-1-[(1R,2S,5S)-2-[[[(2R)-2-chloro-2-fluoro-acetyl]-[[(3S)-2-oxopyrrolidin-3-yl]methyl]amino]carbamoyl]-6,6-dimethyl-3-azabicyclo[3.1.0]hexane-3-carbonyl]-2,2-dimethyl-propyl]-2,2-difluoro-acetamide], the pIC50 is 7.74 on SARS-CoV 3CLpro, 6.92 against MERS-CoV 3CLpro, 7.44 at HCoV-229E 3CLpro and 8.15 at SARS-CoV-2 3CLpro.
